Experimental data: ChEMBL document CHEMBL4425197, “Discovery of a new type of scaffold for the creation of novel tyrosinase inhibitors” (Bioorg Med Chem, 2016)
Calls of active or inactive are those of the source. No cut-off for these calls is given here.

Legend:
Tyrosinase [1] = target: T1, Tyrosinase (Agaricus bisporus, UniProt O42713); test: (§1) Inhibition of mushroom tyrosinase diphenolase activity using L-DOPA as substrate measured every 30 s for 25 times
T1 sequence (O42713 whole entry): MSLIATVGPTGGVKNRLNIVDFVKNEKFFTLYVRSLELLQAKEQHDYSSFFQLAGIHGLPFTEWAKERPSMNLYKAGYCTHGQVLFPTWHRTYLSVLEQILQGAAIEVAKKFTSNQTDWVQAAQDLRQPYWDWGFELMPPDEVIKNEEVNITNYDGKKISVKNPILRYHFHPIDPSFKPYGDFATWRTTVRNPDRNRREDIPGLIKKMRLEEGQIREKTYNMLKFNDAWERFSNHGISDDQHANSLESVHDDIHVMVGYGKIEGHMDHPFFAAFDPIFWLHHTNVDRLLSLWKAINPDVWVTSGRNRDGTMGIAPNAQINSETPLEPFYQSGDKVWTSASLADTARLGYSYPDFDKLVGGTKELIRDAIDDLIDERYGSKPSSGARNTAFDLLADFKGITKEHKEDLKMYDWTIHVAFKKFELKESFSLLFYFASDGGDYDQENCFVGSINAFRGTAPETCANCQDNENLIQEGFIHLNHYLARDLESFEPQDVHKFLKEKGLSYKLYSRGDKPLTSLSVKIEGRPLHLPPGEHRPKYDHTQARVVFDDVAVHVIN

[2] = target: T2, Tyrosinase (Agaricus bisporus) (UniProt O42713); test: (§2) Inhibition of mushroom tyrosinase monophenolase activity using L-tyrosine as substrate measured every 60 s for 25 times
T2 sequence (whole entry): T1 sequence (O42713 whole entry)

Tyrosinase [3] = target: T1, Tyrosinase; test: as §2
[4] = target: T2, Tyrosinase (Agaricus bisporus); test: Ratio of IC50 for mushroom tyrosinase diphenolase activity using L-DOPA as substrate to IC50 for mushroom tyrosinase monophenolase activity using L-tyrosine as substrate
Tyrosinase [5] = target: T1, Tyrosinase; test: Inhibition of mushroom tyrosinase using L-tyrosine as substrate assessed as dopachrome formation preincubated for 10 mins followed by protein addition measured after 20 mins by microplate reader analysis
Tyrosinase [6] = target: T1, Tyrosinase; test: Inhibition of mushroom tyrosinase using L-DOPA as substrate preincubated for 5 mins followed by substrate addition measured for 2 mins by spectrophotometric analysis
[7] = target: T2, Tyrosinase (Agaricus bisporus); test: Potency index, ratio of IC50 for benzoic acid to IC50 for test compound for inhibition of mushroom tyrosinase monophenolase activity
[8] = target: T2, Tyrosinase (Agaricus bisporus); test: Non-competitive inhibition of mushroom tyrosinase monophenolase activity using L-tyrosine as substrate at 5 to 10 uM measured every 60 s for 25 times by Lineweaver-Burk plot analysis
[9] = target: T2, Tyrosinase (Agaricus bisporus); test: Mixed-type inhibition of mushroom tyrosinase diphenolase activity using L-DOPA as substrate at 3 to 30 uM measured every 30 s for 25 times by Lineweaver-Burk plot analysis
[10] = target: T2, Tyrosinase (Agaricus bisporus); test: as §1

Compound | IC50 (Tyrosinase [1]) [µM] | inhibition [2] | IC50 (Tyrosinase [3]) [µM] | Ratio IC50 [4] | also measured
Nc1ccc(C(=O)O)cc1 [AMINOBENZOIC ACID] | – | – | – | – | IC50 (Tyrosinase [5]): 3.8 µM
COc1ccc(C(=O)O)cc1 [p-ANISIC ACID] | – | – | – | – | IC50 (Tyrosinase [5]): 420 µM
O=C(O)c1ccccc1 [BENZOIC ACID] | 822 | – | 224 | 3.66 | IC50 (Tyrosinase [6]): 710 µM
CCOC(=O)c1cccc(-c2ccccc2)c1 | – | inactive | – | – | inhibition [10]: inactive

The next lines start with results.

IC50 (Tyrosinase [1]) [µM] | inhibition [2] | IC50 (Tyrosinase [3]) [µM] | Ratio IC50 [4] | Compound | also measured
216 | Dose-dependent effect | 63.2 | 3.42 | O=C(O)c1ccc(-c2ccccc2)cc1 | –
> 1000 | – | > 1000 | – | O=C(O)c1ccccc1-c1ccccc1 | –
36.3 | Dose-dependent effect | 6.97 | 5.21 | O=C(O)c1cccc(-c2ccccc2)c1 | Ratio IC50 [7]: 30; inhibition [8]: Active; inhibition [9]: Active
